Where a SMILES comes first, the peptide text is derived from it. Bridges are numbered along the chain shown (N, C = ends).
Legend:
[1] = molecular target: T1, Neuronal acetylcholine receptor; alpha4/beta2 (Rattus norvegicus, UniProt P09483+P12390); assay: Binding affinity to rat alpha4beta2 nAChR expressed in HEK cells assessed as inhibition constant measured after 2 hrs in the presence of [3H]epibatidine; assay type: cell-based
[2] = molecular target: Neuronal acetylcholine receptor subunit alpha-7 (Rattus norvegicus, UniProt Q05941); assay: Binding affinity to rat alpha7 nAChR expressed in HEK cells assessed as inhibition constant measured after 2 hrs in the presence of [3H]epibatidine; assay type: cell-based
[3] = molecular target: T2, Neuronal acetylcholine receptor; alpha4/beta2 (Homo sapiens, UniProt P17787+P43681); assay: Antagonist activity at alpha4beta2 nAChR (unknown origin); assay type: protein-complex assay
[4] = molecular target: Serotonin 3 (5-HT3) receptor; assay: Antagonist activity at 5-HT3 receptor (unknown origin); assay type: protein-complex assay, Homo sapiens
Histamine H1 receptor = Histamine H1 receptor (Homo sapiens, UniProt P35367); assay: Antagonist activity at H1 receptor (unknown origin)
[5] = molecular target: T3, Muscarinic acetylcholine receptor M5 (Homo sapiens, UniProt P08912); assay: Antagonist activity at muscarinic M5 receptor (unknown origin); assay type: functional
T3 sequence (P08912 whole entry): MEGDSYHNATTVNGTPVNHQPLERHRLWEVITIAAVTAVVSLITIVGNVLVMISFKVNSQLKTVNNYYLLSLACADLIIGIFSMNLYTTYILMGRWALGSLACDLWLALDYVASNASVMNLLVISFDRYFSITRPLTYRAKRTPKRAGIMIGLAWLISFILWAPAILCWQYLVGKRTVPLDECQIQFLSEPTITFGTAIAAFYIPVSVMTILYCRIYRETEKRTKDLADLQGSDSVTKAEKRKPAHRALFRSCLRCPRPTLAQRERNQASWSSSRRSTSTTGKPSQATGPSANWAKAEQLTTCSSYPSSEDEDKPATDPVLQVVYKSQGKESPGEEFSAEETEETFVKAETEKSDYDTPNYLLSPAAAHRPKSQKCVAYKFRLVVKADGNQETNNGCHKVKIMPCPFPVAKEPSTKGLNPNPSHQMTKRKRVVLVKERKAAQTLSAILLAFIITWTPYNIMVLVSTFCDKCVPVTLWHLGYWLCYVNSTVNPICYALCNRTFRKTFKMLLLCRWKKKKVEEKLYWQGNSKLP

[6] = molecular target: Sigma intracellular receptor 2 (Homo sapiens, UniProt Q5BJF2); assay: Antagonist activity at sigma 2 receptor (unknown origin)
[7] = molecular target: T4, Neuronal acetylcholine receptor; alpha3/beta4 (Homo sapiens, UniProt P30926+P32297); assay: Inhibition of alpha3beta4 (unknown origin) by electrophysiology assay; assay type: protein-complex assay
[8] = molecular target: Neuronal acetylcholine receptor; alpha3/beta2 (Homo sapiens, UniProt P17787+P32297); assay: Inhibition of nAChR alpha3beta2 (unknown origin) by electrophysiology assay; assay type: protein-complex assay
[9] = molecular target: T5, Neuronal acetylcholine receptor subunit alpha-7 (Homo sapiens, UniProt P36544); assay: Inhibition of nAChR alpha7 (unknown origin) by electrophysiology assay
[10] = molecular target: T2, Neuronal acetylcholine receptor; alpha4/beta2; assay: Inhibition of nAChR alpha4beta2 (unknown origin) by electrophysiology assay; assay type: protein-complex assay
[11] = molecular target: T2, Neuronal acetylcholine receptor; alpha4/beta2; assay: Antagonist activity at alpha4beta2 nAChRs (unknown origin) assessed as inhibition constant; assay type: protein-complex assay
[12] = molecular target: T5, Neuronal acetylcholine receptor subunit alpha-7; assay: Antagonist activity at alpha7 nAChRs (unknown origin) assessed as inhibition constant
[13] = molecular target: T5, Neuronal acetylcholine receptor subunit alpha-7; assay: Antagonist activity at alpha7 nAChRs in human SH-SY5Y cells assessed as increase in intracellular calcium level by FLIPR assay; assay type: cell-based
[14] = molecular target: Neuronal acetylcholine receptor; alpha3/beta4 (Rattus norvegicus, UniProt P04757+P12392); assay: Antagonist activity at rat alpha3beta4 nACh receptor expressed in Xenopus oocyte by voltage-clamp based electrophysiological assay; assay type: cell-based
[15] = molecular target: Neuronal acetylcholine receptor; alpha3/beta2 (Rattus norvegicus, UniProt P04757+P12390); assay: Antagonist activity at rat alpha3beta2 nACh receptor expressed in Xenopus oocyte by voltage-clamp based electrophysiological assay; assay type: cell-based
[16] = molecular target: T1, Neuronal acetylcholine receptor; alpha4/beta2; assay: Antagonist activity at rat alpha4beta2 nACh receptor expressed in Xenopus oocyte by voltage-clamp based electrophysiological assay; assay type: cell-based
[17] = molecular target: T5, Neuronal acetylcholine receptor subunit alpha-7; assay: Antagonist activity at human alpha7 nACh receptor expressed in Xenopus oocyte by voltage-clamp based electrophysiological assay; assay type: cell-based
Mu-type opioid receptor = Mu-type opioid receptor (Bos taurus, UniProt P79350); assay: Displacement of [3H]-DAGO from calf cortex MOR receptor assessed as inhibition constant; assay type: tissue-based
[18] = Displacement of [3H]-DPDPE from calf caudate nucleus DOR receptor assessed as inhibition constant; assay type: tissue-based, Bos taurus
[19] = Displacement of [3H]-GR-65,630 from 5-HT3 receptor in mouse NG-108 cells assessed as inhibition constant; assay type: cell-based; settings: ng-108 cell
[20] = molecular target: T6, Muscarinic acetylcholine receptor M1 (Bos taurus, UniProt Q8WMX0); assay: Displacement of [3H]-pirenzepine from calf cortex Muscarinic M1 receptor assessed as inhibition constant; assay type: tissue-based
T6 sequence (Q8WMX0 whole entry): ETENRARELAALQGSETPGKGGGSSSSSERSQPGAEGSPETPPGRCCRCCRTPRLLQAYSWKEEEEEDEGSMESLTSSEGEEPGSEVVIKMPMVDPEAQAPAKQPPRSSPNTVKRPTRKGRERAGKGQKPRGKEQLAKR

[21] = molecular target: Sigma intracellular receptor 2 (Bos taurus, UniProt Q3MHW7); assay: Displacement of [3H]-DTG from calf hippocampus sigma 2 receptor assessed as inhibition constant; assay type: tissue-based
[22] = Displacement of [3H]-BTX-B from bovine cortex sodium channel assessed as inhibition constant; assay type: tissue-based, Bos taurus
[23] = Displacement of [3H]-MK801 from bovine cortex NMDA receptor assessed as inhibition constant; assay type: tissue-based, Bos taurus
[24] = Displacement of [3H]-paroxetine from bovine brain stem 5-HT receptor assessed as inhibition constant; assay type: tissue-based, Bos taurus, Brainstem
[25] = molecular target: T4, Neuronal acetylcholine receptor; alpha3/beta4; assay: Antagonist activity at recombinant alpha3beta4 nAChR in HEK293 cells by voltage-clamp based electrophysiological method; assay type: cell-based
[26] = molecular target: T2, Neuronal acetylcholine receptor; alpha4/beta2; assay: Antagonist activity at alpha4beta2 nAChR in HEK293 cells by voltage-clamp based electrophysiological method; assay type: cell-based
[27] = molecular target: T4, Neuronal acetylcholine receptor; alpha3/beta4; assay: Displacement of [3H]Ibogaine from human alpha3beta4 nAChRs expressed in HEK293 cells assessed as inhibition constant incubated for 2 hrs by scintillation counter analysis; assay type: cell-based

T2 sequence (P17787 whole entry): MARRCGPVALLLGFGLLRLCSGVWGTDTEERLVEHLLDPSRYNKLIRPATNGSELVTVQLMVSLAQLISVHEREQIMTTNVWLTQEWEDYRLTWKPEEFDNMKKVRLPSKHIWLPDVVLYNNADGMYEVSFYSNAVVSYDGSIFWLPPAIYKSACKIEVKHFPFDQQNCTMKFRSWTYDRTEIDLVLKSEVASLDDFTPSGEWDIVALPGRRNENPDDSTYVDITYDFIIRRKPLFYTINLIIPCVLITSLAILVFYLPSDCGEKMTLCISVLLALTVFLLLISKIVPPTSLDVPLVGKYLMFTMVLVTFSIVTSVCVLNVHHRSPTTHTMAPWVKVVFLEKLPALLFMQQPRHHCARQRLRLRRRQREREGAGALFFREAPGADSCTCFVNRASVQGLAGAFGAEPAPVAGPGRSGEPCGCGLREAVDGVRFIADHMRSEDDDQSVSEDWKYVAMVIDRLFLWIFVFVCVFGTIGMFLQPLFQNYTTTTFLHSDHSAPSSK
T2 sequence (P43681 whole entry): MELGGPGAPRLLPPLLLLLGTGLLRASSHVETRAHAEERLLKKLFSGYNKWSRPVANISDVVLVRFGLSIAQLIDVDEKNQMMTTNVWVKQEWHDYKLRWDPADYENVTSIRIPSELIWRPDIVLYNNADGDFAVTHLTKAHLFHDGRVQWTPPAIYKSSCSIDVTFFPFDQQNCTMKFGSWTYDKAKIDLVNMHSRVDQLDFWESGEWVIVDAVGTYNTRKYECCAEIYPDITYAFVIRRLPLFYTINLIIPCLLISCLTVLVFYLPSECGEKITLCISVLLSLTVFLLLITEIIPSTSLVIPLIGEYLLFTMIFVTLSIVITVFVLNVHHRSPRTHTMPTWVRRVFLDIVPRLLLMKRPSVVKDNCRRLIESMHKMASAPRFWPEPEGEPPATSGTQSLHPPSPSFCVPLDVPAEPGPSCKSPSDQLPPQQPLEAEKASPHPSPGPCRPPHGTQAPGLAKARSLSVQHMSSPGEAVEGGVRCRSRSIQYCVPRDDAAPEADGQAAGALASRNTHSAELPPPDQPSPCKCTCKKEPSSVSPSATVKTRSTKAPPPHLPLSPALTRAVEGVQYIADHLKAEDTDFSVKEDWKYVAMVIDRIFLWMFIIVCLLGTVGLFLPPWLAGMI
T4 sequence (P30926 whole entry): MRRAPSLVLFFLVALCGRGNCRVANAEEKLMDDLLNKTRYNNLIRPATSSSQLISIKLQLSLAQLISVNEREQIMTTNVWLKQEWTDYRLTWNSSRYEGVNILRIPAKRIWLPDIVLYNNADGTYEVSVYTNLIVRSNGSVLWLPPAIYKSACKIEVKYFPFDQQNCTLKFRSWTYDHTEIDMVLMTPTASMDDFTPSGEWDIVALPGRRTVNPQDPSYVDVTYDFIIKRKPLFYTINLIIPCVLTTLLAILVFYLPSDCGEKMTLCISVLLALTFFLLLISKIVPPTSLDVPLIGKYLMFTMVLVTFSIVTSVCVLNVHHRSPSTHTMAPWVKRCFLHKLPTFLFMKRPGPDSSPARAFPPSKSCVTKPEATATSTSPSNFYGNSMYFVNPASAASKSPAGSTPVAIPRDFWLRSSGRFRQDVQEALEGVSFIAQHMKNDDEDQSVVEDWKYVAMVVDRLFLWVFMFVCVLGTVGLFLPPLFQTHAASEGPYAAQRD
T4 sequence (P32297 whole entry): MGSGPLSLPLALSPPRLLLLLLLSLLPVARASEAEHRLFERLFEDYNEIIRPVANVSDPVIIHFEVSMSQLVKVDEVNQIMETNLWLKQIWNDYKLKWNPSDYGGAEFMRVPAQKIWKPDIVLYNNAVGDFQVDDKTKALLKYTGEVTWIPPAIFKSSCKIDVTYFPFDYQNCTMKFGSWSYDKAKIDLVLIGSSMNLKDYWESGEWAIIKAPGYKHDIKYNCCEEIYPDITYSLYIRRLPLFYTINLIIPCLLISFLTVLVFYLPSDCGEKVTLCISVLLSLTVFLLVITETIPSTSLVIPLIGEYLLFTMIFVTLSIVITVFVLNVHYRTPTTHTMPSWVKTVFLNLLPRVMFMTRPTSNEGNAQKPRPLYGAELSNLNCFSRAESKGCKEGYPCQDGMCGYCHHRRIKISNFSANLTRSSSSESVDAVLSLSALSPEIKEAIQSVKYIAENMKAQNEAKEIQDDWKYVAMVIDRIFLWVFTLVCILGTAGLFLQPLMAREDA
T5 sequence (P36544 whole entry): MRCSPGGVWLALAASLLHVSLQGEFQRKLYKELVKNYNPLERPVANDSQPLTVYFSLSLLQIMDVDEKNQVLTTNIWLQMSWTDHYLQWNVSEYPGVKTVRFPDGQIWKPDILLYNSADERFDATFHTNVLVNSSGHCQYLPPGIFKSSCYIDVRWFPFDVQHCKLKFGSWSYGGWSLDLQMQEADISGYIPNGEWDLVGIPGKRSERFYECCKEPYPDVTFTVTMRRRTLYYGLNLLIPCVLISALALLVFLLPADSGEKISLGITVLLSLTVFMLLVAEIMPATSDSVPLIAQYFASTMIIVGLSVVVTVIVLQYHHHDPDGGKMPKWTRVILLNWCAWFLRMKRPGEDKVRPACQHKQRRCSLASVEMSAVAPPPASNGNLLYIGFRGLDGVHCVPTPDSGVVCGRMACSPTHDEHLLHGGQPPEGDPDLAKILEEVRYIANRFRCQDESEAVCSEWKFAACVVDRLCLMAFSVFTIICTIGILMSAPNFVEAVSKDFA
T1 sequence (P09483 whole entry): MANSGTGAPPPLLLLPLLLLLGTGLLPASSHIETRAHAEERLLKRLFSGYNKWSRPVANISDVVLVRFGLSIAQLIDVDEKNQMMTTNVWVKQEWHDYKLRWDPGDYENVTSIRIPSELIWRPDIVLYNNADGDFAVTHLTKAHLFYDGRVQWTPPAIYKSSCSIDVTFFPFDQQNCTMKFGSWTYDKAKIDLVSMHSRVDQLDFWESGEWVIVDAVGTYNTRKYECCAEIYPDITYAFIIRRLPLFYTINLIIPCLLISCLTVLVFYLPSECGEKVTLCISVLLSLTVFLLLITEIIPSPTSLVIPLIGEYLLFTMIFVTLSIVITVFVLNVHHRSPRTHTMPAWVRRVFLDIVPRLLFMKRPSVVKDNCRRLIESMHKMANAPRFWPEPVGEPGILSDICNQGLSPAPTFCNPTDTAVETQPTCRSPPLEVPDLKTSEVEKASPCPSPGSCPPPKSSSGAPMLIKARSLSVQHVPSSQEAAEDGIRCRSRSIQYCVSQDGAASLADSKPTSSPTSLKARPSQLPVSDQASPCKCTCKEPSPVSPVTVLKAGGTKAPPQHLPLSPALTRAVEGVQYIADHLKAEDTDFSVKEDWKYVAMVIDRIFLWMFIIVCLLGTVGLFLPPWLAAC
T1 sequence (P12390 whole entry): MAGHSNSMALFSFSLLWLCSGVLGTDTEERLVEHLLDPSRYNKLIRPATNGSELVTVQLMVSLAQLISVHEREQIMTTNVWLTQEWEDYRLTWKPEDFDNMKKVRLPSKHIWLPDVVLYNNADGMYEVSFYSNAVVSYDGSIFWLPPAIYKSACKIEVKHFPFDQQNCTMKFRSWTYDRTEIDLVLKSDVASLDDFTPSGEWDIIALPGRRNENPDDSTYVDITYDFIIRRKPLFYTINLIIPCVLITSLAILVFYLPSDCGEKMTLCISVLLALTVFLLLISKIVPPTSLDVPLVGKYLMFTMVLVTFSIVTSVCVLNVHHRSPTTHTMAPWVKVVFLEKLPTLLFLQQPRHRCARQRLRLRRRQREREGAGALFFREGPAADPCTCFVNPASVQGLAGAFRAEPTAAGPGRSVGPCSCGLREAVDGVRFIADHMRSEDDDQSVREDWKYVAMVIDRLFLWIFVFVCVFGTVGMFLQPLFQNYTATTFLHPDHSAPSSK
Sigma intracellular receptor 2 (Bos taurus, UniProt Q3MHW7), sequence (Q3MHW7 whole entry): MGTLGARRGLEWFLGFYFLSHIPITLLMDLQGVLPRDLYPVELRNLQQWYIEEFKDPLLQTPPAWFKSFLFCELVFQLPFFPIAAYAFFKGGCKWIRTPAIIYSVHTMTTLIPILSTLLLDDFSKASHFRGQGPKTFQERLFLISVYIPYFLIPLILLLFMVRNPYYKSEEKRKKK
Sigma intracellular receptor 2 (Homo sapiens, UniProt Q5BJF2), sequence (Q5BJF2 whole entry): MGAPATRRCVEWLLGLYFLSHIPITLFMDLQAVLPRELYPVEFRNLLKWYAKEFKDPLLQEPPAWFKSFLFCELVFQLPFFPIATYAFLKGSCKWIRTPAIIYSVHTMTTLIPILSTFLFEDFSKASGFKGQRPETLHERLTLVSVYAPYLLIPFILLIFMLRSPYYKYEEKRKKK
Histamine H1 receptor, sequence (P35367 whole entry): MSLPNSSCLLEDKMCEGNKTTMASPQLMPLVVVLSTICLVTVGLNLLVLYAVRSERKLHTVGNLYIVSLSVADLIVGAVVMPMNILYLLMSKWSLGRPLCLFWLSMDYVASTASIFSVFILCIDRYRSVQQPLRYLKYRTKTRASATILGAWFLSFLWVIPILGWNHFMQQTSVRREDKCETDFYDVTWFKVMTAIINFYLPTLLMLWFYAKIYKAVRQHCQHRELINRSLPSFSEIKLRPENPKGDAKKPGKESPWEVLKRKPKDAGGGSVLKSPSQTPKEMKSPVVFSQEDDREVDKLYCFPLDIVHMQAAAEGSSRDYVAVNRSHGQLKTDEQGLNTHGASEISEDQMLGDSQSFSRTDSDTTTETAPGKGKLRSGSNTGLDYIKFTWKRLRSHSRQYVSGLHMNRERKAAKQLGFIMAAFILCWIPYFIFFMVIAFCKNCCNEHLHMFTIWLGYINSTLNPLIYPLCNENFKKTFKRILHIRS
Neuronal acetylcholine receptor; alpha3/beta2 (Homo sapiens, UniProt P17787+P32297), sequence (P17787 whole entry): as the sequence (P17787 whole entry) above
Neuronal acetylcholine receptor; alpha3/beta2 (Homo sapiens, UniProt P17787+P32297), sequence (P32297 whole entry): as the sequence (P32297 whole entry) above

CN1C2CCCC1CC(Nc1ccccc1Br)C2 (centres undefined)
Ki [1]: 477 nM
Ki [2]: 222 nM
IC50 [3]: 300 nM
IC50 [4]: 600 nM
IC50 (Histamine H1 receptor): 201 nM
IC50 [5]: 325 nM
IC50 [6]: 418 nM

C[C@@H]1NC(=O)[C@H](Cc2ccccc2)NC(=O)[C@@H]2CSSC[C@H](NC(=O)CN)C(=O)N[C@@H](CSSC[C@@H](C(N)=O)NC(=O)[C@H](CC(=O)O)NC(=O)[C@@H]3CCCN3C(=O)[C@H](CC(N)=O)NC(=O)[C@H]([C@@H](C)O)NC1=O)C(=O)N[C@@H](CO)C(=O)N[C@@H](Cc1ccc(O)cc1)C(=O)N1CCC[C@H]1C(=O)N1CCC[C@H]1C(=O)N2
IC50 [7]: 770 nM
IC50 [8]: > 100000 nM
IC50 [9]: > 100000 nM
IC50 [10]: > 100000 nM

CNC1(C)[C@H]2CC[C@H](C2)C1(C)C (mixture of isomers)
Ki [11]: 2500 nM
Ki [12]: 6900 nM

CC[C@H](C)[C@@H]1NC(=O)[C@H](CC(N)=O)NC(=O)[C@@H]2CCCN2C(=O)[C@H](CC(N)=O)NC(=O)[C@H](CC(N)=O)NC(=O)[C@H](C(C)C)NC(=O)[C@H](CCCNC(=N)N)NC(=O)[C@@H]2CSSC[C@H](NC(=O)CNC(=O)[C@@H](N)CO)C(=O)N[C@@H](CSSC[C@@H](C(=O)O)NC1=O)C(=O)N[C@@H](CO)C(=O)N[C@@H](CC(N)=O)C(=O)N1CCC[C@H]1C(=O)N[C@@H](C)C(=O)N2 (H-SGCCSNPACRVNNPNIC-OH; disulfide 3-9, 4-17)
IC50 [13]: > 10 nM

CC[C@H](C)[C@H](NC(=O)[C@H](Cc1cnc[nH]1)NC(=O)[C@@H]1CCCN1C(=O)[C@H](CC(N)=O)NC(=O)[C@H](CC(N)=O)NC(=O)[C@@H](NC(=O)[C@H](CC(N)=O)NC(=O)[C@H](CS)NC(=O)[C@H](C)NC(=O)[C@@H]1CCCN1C(=O)[C@H](Cc1cnc[nH]1)NC(=O)[C@H](CO)NC(=O)[C@H](CS)NC(=O)[C@H](CS)NC(=O)CN)C(C)C)C(=O)N[C@@H](CS)C(=O)O (H-GCCSHPACNVNNPHIC-OH)
IC50 [14]: 97 nM
IC50 [15]: 33 nM
IC50 [16]: > 100000 nM
IC50 [17]: 103 nM

CC[C@H]1C[C@@H]2C[C@H]3c4[nH]c5ccc(OC)cc5c4CC[N@@](C2)[C@@H]13
Ki (Mu-type opioid receptor): 2 nM
Ki [18]: > 10 nM
Ki [19]: 2.6 nM
Ki [20]: 16 nM
Ki [21]: 0.4 nM
Ki [22]: 3.6 nM
Ki [23]: 3.1 nM
Ki [24]: 4.1 nM
IC50 [25]: 220 nM
IC50 [26]: 1000 nM
Ki [27]: 1.05 nM
